From US20080167384A1, “Use of Zeaxanthin For the Treatment of Diseases of the Peripheral Retina” (priority 2005, published 2008)

Test: Trial of zeaxanthin supplementation: macular pigment density monitored by heterochromatic flicker photometry (HCFP)
Assay type: in vivo
Settings: Zeaxanthin 20 mg/day, 6-12 months
Description: The usefulness of zeaxanthin for the purposes of the present invention can be seen from the results of a trial with a duration of 6-12 months carried out with 46 subjects which were randomized to two treatment groups: Zeaxanthin, 20 mg/day (n=23), and Placebo (n=23). Macular pigment density (MPD) during this trial was monitored monthly using heterochromatic flicker photometry (HCFP) by independently measuring luminances at central and eccentric (5°=reference) locations. MPD is then calculated by subtracting the luminance at the reference (=eccentric) location from the luminance at the retinal centre.

Q: For CC1=C(/C=C/C(C)=C/C=C/C(C)=C/C=C/C=C(C)/C=C/C=C(C)/C=C/C2=C(C)C[C@@H](O)CC2(C)C)C(C)(C)C[C@H](O)C1 [zeaxanthin], which “rise of luminance at the eccentric reference location” value (HCFP, eccentric (5°) reference location) is on record?
A: approximately 8%

Q: What about the “rise of luminance at the central location” value (HCFP, retinal centre) of the same molecule?
A: approximately 8%

Q: What about the “increase of macular pigment density (MPD) computed with the pre-supplementation eccentric reference luminance” value (actual central luminances minus pre-supplementation eccentric reference luminance) of the same molecule?
A: about 11%
